The target of data set [1] is T1, small-conductance Ca2+-activated K+ channels (SK channels, subtype 3), hSK3 (Homo sapiens, UniProt Q9UGI6).
T1 construct: expressed in transfected cells; host or cells: HEK293
Description: Whole-cell patch-clamp recording of ionic current through hSK3 channels expressed in HEK293 cells. In kind it is cell-based. As to conditions: HEK293 cells expressing hSK3 channels. The protocol:
The compounds of the invention may be tested for their usefulness as potassium channel modulating agents e.g. such as described in WO 2006/100212.
The ionic current through small-conductance Ca^2+-activated K^+ channels (SK channels, subtype 3) is recorded using the whole-cell configuration of the patch-clamp technique in a classic patch-clamp set-up using HEK293 tissue culture cells expressing hSK3 channels as described in e.g. WO 2006/100212
The SC100 value determined is defined as the Stimulating Concentration required for increasing the baseline current by 100%. The SC100 value determined for Compound 4.1 of the invention was 0.022±0.013 μM, which is an indication of its SK3 activating properties.
(In general: The patch-clamp technique gives a direct electrical read-out from membranes.)

As for `Cc1cc(C)n(-c2nc(Nc3ccc(Cl)cc3)cc(N3CCOCC3)n2)n1` [Compound 4.1, (4-Chloro-phenyl)-[2-(3,5-dimethyl-pyrazol-1-yl)-6-morpholin-4-yl-pyrimidin-4-yl]-amine], the melting point – broadly, the temperature, or range, at which the solid turns liquid – lay in the range of 186 to 187 °C. Moreover, the “SC100 (Stimulating Concentration required for increasing the baseline current by 100%)” value in data set [1] is 0.022 ± 0.013 µM.

The values are drawn from patent publication US8618099B2, “Pyrazolyl-pyrimidine derivatives and their use as potassium channel modulators” (Ataxion, Inc., priority 2008, dated 2013).
